Assay results: the supplement of paper PMC13380429

Experiments:
Details in all cases: 72 h
HepG2 [1] = assay: cell viability relative to DMSO; higher = less toxic
Calu-3 [2] = assay: as above
Caco-2 [3] = assay: as above
U2OS [4] = assay: as above
Vero E6 [5] = assay: as above
HepG2 [6] = assay: relative viability EC50 (midpoint between 100% and the lowest measured viability); higher = less toxic
Calu-3 [7] = assay: as above
Caco-2 [8] = assay: as above
U2OS [9] = assay: as above
Vero E6 [10] = assay: as above
HepG2 [11] = assay: drug sensitivity score (DSS) for viability; higher = more toxic; extreme values may be limits of the assay
Calu-3 [12] = assay: as above
Caco-2 [13] = assay: as above
U2OS [14] = assay: as above
Vero E6 [15] = assay: as above

Row | SMILES | cell viability (HepG2 [1]; 1 nM) | cell viability (HepG2 [1]; 10 nM) | cell viability (HepG2 [1]; 100 nM) | cell viability (HepG2 [1]; 1000 nM) | cell viability (HepG2 [1]; 10000 nM) | cell viability (Calu-3 [2]; 1 nM) | cell viability (Calu-3 [2]; 10 nM) | cell viability (Calu-3 [2]; 100 nM) | cell viability (Calu-3 [2]; 1000 nM) | cell viability (Calu-3 [2]; 10000 nM) | cell viability (Caco-2 [3]; 1 nM) | cell viability (Caco-2 [3]; 10 nM) | cell viability (Caco-2 [3]; 100 nM) | cell viability (Caco-2 [3]; 1000 nM) | cell viability (Caco-2 [3]; 10000 nM) | cell viability (U2OS [4]; 1 nM) | cell viability (U2OS [4]; 10 nM) | cell viability (U2OS [4]; 100 nM) | cell viability (U2OS [4]; 1000 nM) | cell viability (U2OS [4]; 10000 nM) | cell viability (Vero E6 [5]; 1 nM) | cell viability (Vero E6 [5]; 10 nM) | cell viability (Vero E6 [5]; 100 nM) | cell viability (Vero E6 [5]; 1000 nM) | cell viability (Vero E6 [5]; 10000 nM) | relative viability EC50 (HepG2 [6]) | relative viability EC50 (Calu-3 [7]) | relative viability EC50 (Caco-2 [8]) | relative viability EC50 (U2OS [9]) | relative viability EC50 (Vero E6 [10]) | drug sensitivity score (HepG2 [11]) | drug sensitivity score (Calu-3 [12]) | drug sensitivity score (Caco-2 [13]) | drug sensitivity score (U2OS [14]) | drug sensitivity score (Vero E6 [15])
1 | c1ccc(-c2nc(CN3CCN(c4ncccn4)CC3)c[nH]2)cc1 [NGD-94-1] | 98.2% | 97.3% | 94.1% | 101% | 105% | 79.7% | 93.8% | 85.5% | 95.7% | 108% | 99.7% | 106% | 91.9% | 102% | 111% | 100% | 95.5% | 98.4% | 92.5% | 109% | 93.2% | 97.5% | 91.5% | 92.9% | 105% | > 10 µM | > 10 µM | > 10 µM | > 10 µM | > 10 µM | 0 | 0 | 0 | 0 | 0
2 | Cc1cc(O)c(-c2ccc([C@@H](C)CN)cc2)c2c1[nH]c(=O)c1sccc12 [OTS514] | 109% | 99.4% | 46.3% | 3.1% | 1.1% | 105% | 92.5% | 81.7% | 23.9% | 38.8% | 98.6% | 87.1% | 83.6% | 29.9% | 25.5% | 96.3% | 97.8% | 96.6% | 1.1% | 1.1% | 102% | 98.8% | 93.2% | 85.4% | 6% | 0.0917 µM | 0.16 µM | 0.21 µM | 0.291 µM | 1.95 µM | 24.2 | 16.7 | 14.9 | 18.2 | 7.6
3 | COc1ccccc1C(=O)Nc1cc2c(cc1N1CCCC1)n(C)c(=O)n2C [PFI-4] | 92.7% | 93.1% | 94.1% | 96.5% | 91.5% | 93.7% | 104% | 94.7% | 106% | 98% | 104% | 99.8% | 92.7% | 89.1% | 77.6% | 101% | 101% | 97.6% | 99.4% | 92% | 99.2% | 102% | 96.2% | 92.2% | 89% | > 10 µM | > 10 µM | > 10 µM | > 10 µM | > 10 µM | 0 | 0 | 1.6 | 0 | 0
